Laboratory results published in US8822534B2, “Substituted aminopropionic derivatives as neprilysin inhibitors” (priority 2009, dated 2014).

Target: recombinant human neutral endopeptidase (NEP, EC 3.4.24.11) (Homo sapiens (Human), UniProt P08473)
Assay: in vitro inhibition of recombinant human neutral endopeptidase (fluorescence lifetime assay)
Format: biochemical
Source text: The activity of a compound according to the present invention can be assessed by the following in vitro & in vivo methods and/or by the following in vitro & in vivo methods well-described in the art. See A fluorescence lifetime-based assay for protease inhibitor profiling on human kallikrein 7 Doering K, Meder G, Hinnenberger M, Woelcke J, Mayr L M, Hassiepen U Biomol Screen.
In particular, the in vitro inhibition of recombinant human neutral endopeptidase (NEP, EC 3.4.24.11) can be determined as follows: […]

recombinant human neutral endopeptidase (NEP, EC 3.4.24.11), sequence (P08473 whole entry): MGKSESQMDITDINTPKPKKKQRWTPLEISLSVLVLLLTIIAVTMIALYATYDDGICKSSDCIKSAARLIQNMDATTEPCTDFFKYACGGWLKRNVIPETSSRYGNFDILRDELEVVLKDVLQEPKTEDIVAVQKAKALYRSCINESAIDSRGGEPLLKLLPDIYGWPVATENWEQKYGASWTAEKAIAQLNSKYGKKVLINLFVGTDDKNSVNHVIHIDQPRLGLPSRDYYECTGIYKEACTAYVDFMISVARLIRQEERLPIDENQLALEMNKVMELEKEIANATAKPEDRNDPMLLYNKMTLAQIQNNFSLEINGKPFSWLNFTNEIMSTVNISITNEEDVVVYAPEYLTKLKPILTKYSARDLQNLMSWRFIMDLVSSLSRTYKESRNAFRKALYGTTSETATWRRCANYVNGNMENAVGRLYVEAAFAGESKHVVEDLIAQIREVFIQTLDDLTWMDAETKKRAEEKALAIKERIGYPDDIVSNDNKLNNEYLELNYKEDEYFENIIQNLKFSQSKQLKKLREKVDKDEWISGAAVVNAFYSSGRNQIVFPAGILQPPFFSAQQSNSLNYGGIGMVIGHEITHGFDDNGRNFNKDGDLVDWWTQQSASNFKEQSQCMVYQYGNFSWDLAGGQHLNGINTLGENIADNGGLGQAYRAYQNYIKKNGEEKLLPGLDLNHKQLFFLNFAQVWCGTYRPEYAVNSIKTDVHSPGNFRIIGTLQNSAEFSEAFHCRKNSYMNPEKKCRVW

## O=C(O)C[C@@H](Cc1ccc(-c2cccc(Cl)c2)cc1)NC(=O)CCC(=O)Oc1ccc2c(c1)CCC2 [Example 3-27]
  IC50: 15 nM
